Columns and labels:
[1] = molecular target: T1, FXR ligand binding domain (Homo sapiens, UniProt Q96RI1); test: Mammalian One Hybrid (M1H) assay, Gal4 promoter driven transactivation in HEK293 cells; type: cell-based; settings: Gal4-FXR-LBD luciferase reporter, 16 h
T1 construct: expressed in transfected cells; host or cells: HEK293 cells, transiently transfected with pCMV-BD-FXR-LBD, pFR-Luc and pRL-CMV
T1 sequence (Q96RI1 187-472 isoform Q96RI1-2): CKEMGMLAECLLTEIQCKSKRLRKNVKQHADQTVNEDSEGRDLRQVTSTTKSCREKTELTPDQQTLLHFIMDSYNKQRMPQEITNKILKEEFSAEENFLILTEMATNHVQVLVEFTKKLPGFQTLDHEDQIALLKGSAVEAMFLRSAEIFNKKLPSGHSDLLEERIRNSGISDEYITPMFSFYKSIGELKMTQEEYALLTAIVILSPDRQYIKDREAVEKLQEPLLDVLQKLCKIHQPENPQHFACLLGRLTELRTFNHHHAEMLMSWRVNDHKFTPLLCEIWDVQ
Experimental: Mammalian One Hybrid (M1H) Assay
Determination of a ligand mediated Gal4 promoter driven transactivation to quantify ligand binding mediated activation of FXR was performed as follows: The cDNA part encoding the FXR ligand binding domain was cloned into vector pCMV-BD (Stratagene) as a fusion to the yeast GAL4 DNA binding domain under the control of the CMV promoter. The amino acid boundaries of the ligand binding domain were amino acids 187-472 of Database entry NM_005123 (RefSeq). The plasmid pFR-Luc (Stratagene) was used as the reporter plasmid, containing a synthetic promoter with five tandem repeats of the yeast GAL4 binding sites, driving the expression of the Photinus pyralis (American firefly) luciferase gene as the reporter gene. In order to improve experimental accuracy the plasmid pRL-CMV (Promega) was cotransfected. pRL-CMV contains the constitutive CMV promoter, controlling the expression of the Renilla reniformis luciferase. All Gal4 reporter gene assays were done in HEK293 cells (obtained from DSMZ, Braunschweig, Germany) grown in MEM with L-Glutamine and Earle's BSS supplemented with 10% fetal bovine serum, 0.1 mM nonessential amino acids, 1 mM sodium pyruvate, and 100 units Penicilin/[…] per mL at 37° C. in 5% CO2. Medium and supplements were obtained from Invitrogen. For the assay, […] cells were plated per well in 96 well plates in 100 μL per well MEM without Phenol Red and L-Glutamine and with Earle's BSS supplemented with 10% charcoal/dextran treated FBS (HyClone, South Logan, Utah), 0.1 mM nonessential amino acids, 2 mM glutamine, 1 mM sodium pyruvate, and 100 units Penicilin/[…] per mL, incubated at 37° C. in 5% CO2. The following day the cells were >90% confluence. Medium was removed and cells were transiently transfected using 20 μL per well of a OptiMEM—polyethylene-imine-based transfection-reagent (OptiMEM, Invitrogen; Polyethyleneimine, Aldrich Cat No. 40,827-7) including the three plasmids described above. MEM with the same composition as used for plating cells was added 2-4 h after addition of transfection mixture. Then compound stocks, prediluted in MEM were added (final vehicle concentration not exceeding 0.1%). Cells were incubated for additional 16 h before firefly and renilla luciferase activities were measured sequentially in the same cell extract using a Dual-Light-Luciferase-Assay system (Dyer et al., Anal. Biochem. 2000, 282, 158-161). All experiments were done in triplicates.

[2] = molecular target: T2, human FXR alpha ligand binding domain (Homo sapiens, UniProt Q96RI1); test: FRET activity assay (ligand mediated cofactor peptide interaction, LANCE); type: biochemical; settings: GST-FXR-LBD / biotinylated SRC-1 peptide (676-700), read-out: F EC50
T2 construct: made in house; host or cells: E. coli BL21(DE3), vector pDEST15
T2 sequence (Q96RI1 187-472 isoform Q96RI1-2): T1 sequence (Q96RI1 187-472 isoform Q96RI1-2)
Experimental: Determination of a ligand mediated cofactor peptide interaction to quantify ligand binding to the nuclear receptor FXR was performed as follows: Preparation of human FXR alpha ligand binding domain: The human FXRalpha LBD was expressed in E. coli strain BL21(DE3) as an N-terminally GST tagged fusion protein. The DNA encoding the FXR ligand binding domain was cloned into vector pDEST15 (Invitrogen). Expression was under control of an IPTG inducible T7 promoter. The amino acid boundaries of the ligand binding domain were amino acids 187-472 of Database entry NM_005123 (RefSeq). Expression and purification of the FXR-LBD: An overnight preculture of a transformed E. coli strain was diluted 1:20 in LB-Ampicillin medium and grown at 30° C. to an optical density of OD600=0.4-0.6. Gene expression was then induced by addition of 0.5 mM IPTG. Cells were incubated an additional 6 h at 30° C., 180 rpm. Cells were collected by centrifugation (7000×g, 7 min, rt). Per liter of original cell culture, cells were resuspended in 10 mL lysis buffer (50 mM Glucose, 50 mM Tris pH 7.9, 1 mM EDTA and 4 mg/mL lysozyme) and left on ice for 30 min. Cells were then subjected to sonication and cell debris removed via centrifugation (22000×g, 30 min, 4° C.). Per 10 mL of supernatant 0.5 mL prewashed Glutathione 4B sepharose slurry (Qiagen) was added and the suspension kept slowly rotating for 1 h at 4° C. Glutathione 4B sepharose beads were pelleted by centrifugation (2000×g, 15 sec, 4° C.) and washed twice in wash buffer (25 mM Tris, 50 mM KCl, 4 mM MgCl2 and 1M NaCl). The pellet was resuspended in 3 mL elution buffer per liter of original culture (elution buffer: 20 mM Tris, 60 mM KCl, 5 mM MgCl2 and 80 mM glutathione added immediately prior to use as powder). The suspension was left rotating for 15 min at 4° C., the beads pelleted and eluted again with half the volume of elution buffer than the first time. The eluates were pooled and dialysed overnight in 20 mM Hepes buffer (pH 7.5) containing 60 mM KCl, 5 mM MgCl2 as well as 1 mM dithiothreitol and 10% (v/v) glycerol. The protein was analysed by SDS-Page.
The method measures the ability of putative ligands to modulate the interaction between the purified bacterial expressed FXR ligand binding domain (LBD) and a synthetic biotinylated peptide based on residues 676-700 of SRC-1 (LCD2, 676-700). The sequence of the peptide used was B—[…]—COOH where the N-terminus was biotinylated (B). The ligand binding domain (LBD) of FXR was expressed as fusion protein with GST in BL-21 cells using the vector pDEST15. Cells were lysed by sonication, and the fusion proteins purified over glutathione sepharose (Pharmacia) according to the manufacturers instructions. For screening of compounds for their influence on the FXR-peptide interaction, the Perkin Elmer LANCE technology was applied. This method relies on the binding dependent energy transfer from a donor to an acceptor fluorophor attached to the binding partner of interest. For ease of handling and reduction of background from compound fluorescence LANCE technology makes use of generic fluorophore labels and time resolved detection Assays were done in a final volume of 25 μL in a 384 well plate, in a Tris-based buffer (20 mM Tris-HCl pH 7.5; 60 mM KCl, 5 mM MgCl2; 35 ng/μL BSA), containing 20-60 ng/well recombinantly expressed FXR-LBD fused to GST, 200-600 nM N-terminally biotinylated peptide, representing SRC1 aminoacids 676-700, 200 ng/well Streptavidin-xIAPC conjugate (Prozyme) and 6-10 ng/well Eu W1024-antiGST (Perkin Elmer). DMSO content of the samples was kept at 1%. After generation of the assay mix and diluting the potentially FXR modulating ligands, the assay was equilibrated for 1 h in the dark at rt in FIA-plates black 384 well (Greiner). The LANCE signal was detected by a Perkin Elmer VICTOR2VTM Multilabel Counter. The results were visualized by plotting the ratio between the emitted light at 665 and 615 nm. […]

EC50 [1] [nM]	EC50 [2] [nM]	SMILES
2200	1500	O=C(O)c1ccc2nc([C@]3(O)CC[C@@H](OCc4c(-c5ccccc5C(F)F)noc4C4CC4)CC3)sc2c1 [Example 11-15, 2-((1s,4s)-4-((5-Cyclopropyl-3-(2-(difluoromethyl)phenyl)isoxazol-4-yl)methoxy)-1-hydroxycyclohexyl)benzo[d]thiazole-6-carboxylic acid]
570	84	O=C(O)c1ccc2nc([C@]3(O)CC[C@@H](OCc4c(-c5c(Cl)cncc5Cl)noc4C4CC4)CC3)sc2c1 [Example 11-16, 2-((1s,4s)-4-((5-Cyclopropyl-3-(3,5-dichloropyridin-4-yl)isoxazol-4-yl)methoxy)-1-hydroxycyclohexyl)benzo[d]thiazole-6-carboxylic acid]
1800	980	O=C(O)c1ccc2nc([C@]3(O)CC[C@@H](OCc4c(C5CC5)cnn4-c4ccccc4OC(F)F)CC3)sc2c1 [Example 11-17, 2-((1s,4s)-4-((4-Cyclopropyl-1-(2-(difluoromethoxy)phenyl)-1H-pyrazol-5-yl)methoxy)-1-hydroxycyclohexyl)benzo[d]thiazole-6-carboxylic acid]
170	350	O=C(O)c1ccc2nc([C@]3(O)CC[C@@H](OCc4c(-c5c(C(F)F)cccc5C(F)F)noc4C4CC4)CC3)sc2c1 [Example 11-18, 2-((1s,4s)-4-((3-(2,6-Bis(difluoromethyl)phenyl)-5-cyclopropylisoxazol-4-yl)methoxy)-1-hydroxycyclohexyl)benzo[d]thiazole-6-carboxylic acid]
2500	570	O=C(O)c1cc2sc([C@]3(O)CC[C@@H](OCc4c(-c5ccccc5OC(F)F)noc4C4CC4)CC3)nc2cc1F [Example 11-19, 2-((1s,4s)-4-((5-Cyclopropyl-3-(2-(difluoromethoxy)phenyl)isoxazol-4-yl)methoxy)-1-hydroxycyclohexyl)-5-fluorobenzo[d]thiazole-6-carboxylic acid]
1500	180	O=C(O)c1cc2sc([C@]3(O)CC[C@@H](OCc4c(-c5c(Cl)cccc5Cl)noc4C4CC4)CC3)nc2cc1F [Example 11-20, 2-((1s,4s)-4-((5-Cyclopropyl-3-(2,6-dichlorophenyl)isoxazol-4-yl)methoxy)-1-hydroxycyclohexyl)-5-fluorobenzo[d]thiazole-6-carboxylic acid]
310	23	O=C(O)c1cc(F)c2nc([C@]3(O)C[C@@H](OCc4c(-c5c(Cl)cccc5Cl)noc4C4CC4)C3)sc2c1 [Example 11-21, 2-((1s,3s)-3-((5-Cyclopropyl-3-(2,6-dichlorophenyl)isoxazol-4-yl)methoxy)-1-hydroxycyclobutyl)-4-fluorobenzo[d]thiazole-6-carboxylic acid]
1.6	3.7	O=C(O)c1ccc2nc([C@]3(O)[C@@H]4CC[C@H]3C[C@H](OCc3c(-c5c(Cl)cccc5Cl)noc3C3CC3)C4)sc2c1 [Example 11-22, 2-((1R,3s,5S,8r)-3-((5-cyclopropyl-3-(2,6-dichlorophenyl)isoxazol-4-yl)methoxy)-8-hydroxybicyclo[3.2.1]octan-8-yl)benzo[d]thiazole-6-carboxylic acid]
18	41	O=C(O)c1ccc2nc([C@]3(O)[C@@H]4CC[C@H]3C[C@@H](OCc3c(-c5c(Cl)cccc5Cl)noc3C3CC3)C4)sc2c1 [Example 11-23, 2-((1R,3r,5S,8r)-3-((5-Cyclopropyl-3-(2,6-dichlorophenyl)isoxazol-4-yl)methoxy)-8-hydroxybicyclo[3.2.1]octan-8-yl)benzo[d]thiazole-6-carboxylic acid]
14	7.8	O=C(O)c1ccc([C@]2(O)[C@@H]3CC[C@H]2C[C@H](OCc2c(-c4c(Cl)cccc4Cl)noc2C2CC2)C3)c(F)c1 [Example 11-24]
430	79	O=C(O)c1cccc([C@]2(O)[C@@H]3CC[C@H]2C[C@H](OCc2c(-c4c(Cl)cccc4Cl)noc2C2CC2)C3)c1 [Example 11-25, 3-((1R,3s,5S,8r)-3-((5-Cyclopropyl-3-(2,6-dichlorophenyl)isoxazol-4-yl)methoxy)-8-hydroxybicyclo[3.2.1]octan-8-yl)benzoic acid]
1800	53	O=C(O)c1ccnc([C@]2(O)[C@@H]3CC[C@H]2C[C@H](OCc2c(-c4c(Cl)cccc4Cl)noc2C2CC2)C3)c1 [Example 11-26]
1	3.8	O=C(O)c1cc(F)c2nc([C@]3(O)[C@@H]4CC[C@H]3C[C@H](OCc3c(-c5c(Cl)cccc5Cl)noc3C3CC3)C4)sc2c1 [Example 11-27, 2-((1R,3s,5S,8r)-3-((5-cyclopropyl-3-(2,6-dichlorophenyl)isoxazol-4-yl)methoxy)-8-hydroxybicyclo[3.2.1]octan-8-yl)-4-fluorobenzo[d]thiazole-6-carboxylic acid]

— patent publication US9751874B2, “Hydroxy containing FXR (NR1H4) modulating compounds” (Gilead Sciences, Inc., priority 2014, dated 2017)
